Measured values reported in patent publication US10919916B2, “Boron-containing small molecules” (Bill & Melinda Gates Foundation, priority 2016, dated 2021).
Converted amounts (≈) assume the structure as drawn.

What was measured:
Format in all cases: cell-based
[1] = tested on: Wolbachia pipientis in C6/36 cell line; assay: Anti-Wolbachia high-content assay; settings: C6/36 (wAlbB) cells, 7 days at 26° C., 50% reduction of Wolbachia, read-out: EC50 Wolbachia pipientis in C6/36 cell line
Method in brief: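 Wolbachia-infected C6/36 cells stained 15 minutes, then medium replaced and five fields per well imaged confocally at 60× with fluorescein filters. Each intact cell scored on cytoplasmic texture complexity.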

[2] = tested on: Streptococcus pneumoniae (ATCC 49619); assay: Antibacterial MIC assay (microbroth dilution, CLSI); settings: ATCC49619, microbroth dilution, 3% lysed horse blood, 35° C. for 16-20 hours, read-out: MIC Streptococcus pneumoniae (ATCC 49619)
Method in brief: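 S. pneumoniae at 5×10^5 CFU/mL (from 0.5 McFarland saline suspension) was tested against 2-fold serial compound dilutions in cation-adjusted Mueller-Hinton broth plus 3% lysed horse blood, per CLSI M07-A10/M100-S25 microdilution guidelines.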

[3] = tested on: Staphylococcus aureus, MRSA (ATCC 33591); assay: as above; settings: microbroth dilution, cation-adjusted Mueller-Hinton broth, 35° C. for 16-20 hours, read-out: MIC Staphylococcus aureus, MRSA (ATCC 33591)
Method in brief: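 Compound 2-fold dilution series tested against 5×10^5 CFU/mL bacteria prepared from 0.5 McFarland saline suspensions of overnight colonies. Medium was cation-adjusted Mueller-Hinton broth, supplemented with 3% lysed horse blood for the fastidious pneumococcus. Protocol followed CLSI M07-A10 and M100-S25.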

| EC50 [1] | MIC [2] | MIC [3] | SMILES |
| --- | --- | --- | --- |
| 13 nM | 0.5 to 2 µg/mL (≈ 0.923 to 3.69 µM) | 0.5 to 2 µg/mL (≈ 0.923 to 3.69 µM) | C=C[C@]1(C)C[C@@H](OC(=O)COc2ccc3c(c2)B(O)ON=C3)[C@]2(C)[C@H](C)CC[C@]3(C[C@H](F)C(=O)[C@H]32)[C@@H](C)[C@@H]1O [Compound 99, (2S,3aR,4R,5R,7S,8S,9R,9aS,12R)-2-fluoro-8-hydroxy-4,7,9,12-tetramethyl-3-oxo-7-vinyldecahydro-4,9a-propanocyclopenta[8]annulen-5-yl 2-((1-hydroxy-1H-benzo[d][1,2,6]oxazaborinin-7-yl)oxy)acetate] |
| > 1000 nM | 4 to 32 µg/mL (≈ 7.82 to 62.6 µM) | 0.5 to 2 µg/mL (≈ 0.978 to 3.91 µM) | C=C[C@]1(C)C[C@@H](OC(=O)COc2cnc3c(c2)B(O)OC3)[C@]2(C)[C@H](C)CC[C@]3(CCC(=O)[C@H]32)[C@@H](C)[C@@H]1O [Compound 101, (3aR,4R,5R,7S,8S,9R,9aS,12R)-8-hydroxy-4,7,9,12-tetramethyl-3-oxo-7-vinyldecahydro-4,9a-propanocyclopenta[8]annulen-5-yl 2-((1-hydroxy-1,3-dihydro-[1,2]oxaborolo[4,3-b]pyridin-6-yl)oxy)acetate] |
| > 1000 nM | > 64 µg/mL | > 64 µg/mL | C=C[C@]1(C)C[C@@H](OC(=O)CNc2cnc3c(c2)B(O)OC3)[C@]2(C)[C@H](C)CC[C@]3(CCC(=O)[C@H]32)[C@@H](C)[C@@H]1O [Compound 102, (3aR,4R,5R,7S,8S,9R,9aS,12R)-8-hydroxy-4,7,9,12-tetramethyl-3-oxo-7-vinyldecahydro-4,9a-propanocyclopenta[8]annulen-5-yl (1-hydroxy-1,3-dihydro-[1,2]oxaborolo[4,3-b]pyridin-6-yl)glycinate] |
| 419 nM | < 0.25 µg/mL | < 0.25 µg/mL | C=C[C@]1(C)C[C@@H](OC(=O)COc2ccc(C3=CCOB3O)cc2)[C@]2(C)[C@H](C)CC[C@]3(CCC(=O)[C@H]32)[C@@H](C)[C@@H]1O [Compound 103, (3aR,4R,5R,7S,8S,9R,9aS,12R)-8-hydroxy-4,7,9,12-tetramethyl-3-oxo-7-vinyldecahydro-4,9a-propanocyclopenta[8]annulen-5-yl 2-(4-(2-hydroxy-2,5-dihydro-1,2-oxaborol-3-yl)phenoxy)acetate] |
